Source: publication PMC6348443 (Journal of Medicinal Chemistry, 2018)
Entries after “also recorded” stand apart in the source; their conditions may differ. Structures can show the parent of a compound that is named as a salt. Where two headings read alike, the source gives them in different places.

Legend:
[1] = target: T1, MOR (Homo sapiens, UniProt P35372); test: [35S]GTPγS binding assay, CHO-hMOR membranes; assay type: biochemical; settings: for Emax: relative to reference full agonist DAMGO, read-out: MOR % stim.; for functional profile at MOR (full/partial agonist): full agonist ≥85% of the response to DAMGO
T1 construct: host or cells: CHO (CHO-hMOR)

[2] = target: T1, MOR; test: competition radioligand binding, CHO cell membranes expressing human MOR, [3H]DAMGO
Description: (§1) Membranes from CHO cells expressing human opioid receptors were prepared in 50 mM Tris-HCl buffer (pH 7.7) according to a previously described procedure.[64] Cells expressing human opioid receptors grown at confluence were removed from the culture plates by scraping, homogenized in 50 mM Tris buffer (pH 7.7), using a Polytron homogenizer, then centrifuged once and washed by an additional centrifugation at 27 000g for 15 min, at 4 °C. The final pellet was resuspended in Tris buffer and stored at −80 °C until use. Protein content of brain and cell membrane preparation homogenates was determined by the method of Bradford using bovine serum albumin as the standard.[65]
(§2) Rat brain membranes were incubated with either [^3H]DAMGO (1 nM, 45 min, 35 °C) or [^3H][Ile^5,6]deltorphin II (0.5 nM, 45 min, 35 °C) for labeling MOR or DOR receptors, respectively. Guinea-pig brain membranes were incubated with [^3H]U69,593 (1 nM, 30 min, 30 °C) for labeling KOR. Binding assays with CHO cell membranes were conducted at 25 °C for 60 min using [^3H]DAMGO (1 nM) or [^3H]diprenorphine (0.2 nM) for labeling MOR or DOR, respectively. Nonspecific binding was determined using 10 μM naloxone (rodent brain) or 1–10 μM of the unlabeled counterpart of each radioligand (CHO cells). Reactions were terminated by rapid filtration through Whatman glass fiber GF/C filters. Filters were washed three times with 5 mL of ice-cold 50 mM Tris-HCl buffer (pH 7.4) using a Brandel M24R cell harvester (Gaithersburg, MD). Radioactivity retained on the filters was counted by liquid scintillation counting using a Beckman Coulter LS6500 (Beckman Coulter Inc., Fullerton, CA). All binding experiments were performed in duplicate and repeated at least three times.
(§3) aDetermined in competition radioligand binding assays using CHO cell membranes expressing
(§4) human MOR and DOR. Values represent the mean ± SEM of three independent experiments each

[3] = target: T2, DOR (Homo sapiens, UniProt P41143); test: competition radioligand binding, CHO cell membranes expressing human DOR, [3H]diprenorphine
T2 construct: host or cells: CHO (CHO-hDOR)
Description: as §1, §2, §3, §4

[4] = target: T2, DOR; test: [35S]GTPγS binding assay, CHO-hDOR membranes; assay type: biochemical; settings: for EC50: [35S]GTPγS, CHO human DOR membranes; for Emax: relative to reference full agonist DPDPE, read-out: DOR % stim.; for functional profile at DOR (full/partial agonist): full agonist ≥85% of the response to DPDPE
[5] = target: T3, KOR (Homo sapiens, UniProt P41145); test: [35S]GTPγS binding assay, CHO-hKOR membranes; assay type: biochemical; settings: for EC50: [35S]GTPγS, CHO human KOR membranes, read-out: KOR EC50; for functional profile at KOR (full/partial agonist): partial agonist <85% of the response to U69,593; for Emax: relative to reference full agonist U69,593, read-out: KOR % stim.
T3 construct: host or cells: CHO (CHO-hKOR)

[6] = test system: male CD1 mice; test: acetic acid-induced writhing assay after sc administration; assay type: in vivo, mouse; settings: for ED50: Mus musculus, 0.5 h, read-out: ED50 (95% CI), mice, sc, inhibition of writhing 30 min after drug administration
[7] = test system: peripheral opioid receptors; test: antagonism by naloxone methiodide in the acetic acid-induced writhing assay; assay type: in vivo, mouse; settings: sc co-administration with naloxone methiodide 1 mg/kg; agonist 50 or 200 μg/kg sc; 30 min
Description: To determine whether targeted 6-amino acid and 6-dipeptide analogues inhibit writhing behavior in mice through peripheral opioid receptors activation, we used naloxone methiodide.[27]
Values are shown as mean of writhes ± SEM (n = 6–7 mice per group). ***P < 0.001 vs control group; ^#P < 0.05, ^##P < 0.01 and ^###P < 0.001 vs agonist treated group, ANOVA with Tukey’s post hoc test.
Writhing was induced in male CD1 mice by ip injection of a 0.6% acetic acid aqueous solution as described previously.[48],[62] Groups of mice were administered sc different doses of test compound or saline (control), and 5 min prior to testing (25 min after drug or saline), each animal received an ip injection of acetic acid solution. Each mouse was placed in individual transparent Plexiglas chambers, and the number of writhes was counted during a 10 min observation period. […] For the antagonism study, naloxone methiodide was sc co-administered with the respective opioid agonist, and writhing was assessed as described above.

[8] = target: T4, MOR (Rattus norvegicus, UniProt P33535); test: competition radioligand binding, rat brain membranes, [3H]DAMGO; settings: for Ki: rat brain membranes, read-out: opioid receptor binding Ki MOR; for increase in MOR binding affinity vs comparator: 17b vs 4b, 16a/b vs 7a/b, 22a/b vs 7a, 7b and 9b, 14a vs 14b
T4 construct: Membranes were prepared from Sprague-Dawley rat brains or guinea-pig brains according to the described procedures; tissue Labortierkunde und Laborgenetik, Medizinische Universität Wien; host or cells: Sprague-Dawley rat brain without cerebella

[9] = target: T5, DOR (Rattus norvegicus, UniProt P33533); test: competition radioligand binding, rat brain membranes, [3H][Ile5,6]deltorphin II; settings: rat brain membranes; read-out: opioid receptor binding Ki DOR
T5 construct: Membranes were prepared from Sprague-Dawley rat brains or guinea-pig brains according to the described procedures; tissue Labortierkunde und Laborgenetik, Medizinische Universität Wien; host or cells: Sprague-Dawley rat brain without cerebella

[10] = target: T6, KOR (Cavia porcellus, UniProt P41144); test: competition radioligand binding, guinea-pig brain membranes, [3H]U69,593; settings: for Ki: guinea-pig brain membranes, read-out: opioid receptor binding Ki KOR
T6 construct: Membranes were prepared from Sprague-Dawley rat brains or guinea-pig brains according to the described procedures; tissue Labortierkunde und Laborgenetik, Medizinische Universität Wien; host or cells: guinea-pig brain without cerebella

[11] = [35S]GTPγS, CHO human MOR membranes, read-out: MOR EC50

| SMILES | EC50 [1] [nM] | EC50 [1, 11] [nM] | Emax [1] [%] | Ki [2] [nM] | Ki [3] [nM] | EC50 [4] [nM] | Emax [4] [%] | EC50 [5] [nM] | functional profile at KOR (full/partial agonist) [5] | Emax [5] [%] | ED50 [6] [mg/kg] | effect of naloxone methiodide on antinociceptive effect [7] | functional profile at MOR (full/partial agonist) [1] | Ki [8] [nM] | increase in MOR binding affinity vs comparator ([8]; rat brain) | Ki [9] [nM] | Ki [10] [nM] | also measured |
| --- | --- | --- | --- | --- | --- | --- | --- | --- | --- | --- | --- | --- | --- | --- | --- | --- | --- | --- |
| CO[C@@]12CC[C@H](N[C@@H](Cc3ccccc3)C(=O)O)[C@@H]3Oc4c(O)ccc5c4[C@@]31CCN(C)[C@@H]2C5 [Compound 4a] | < 1 | 0.38 ± 0.19 | 93 ± 8 | 0.81 ± 0.2 | 3.61 ± 1.2 | 0.39 ± 0.19 | 102 ± 2 | 219 ± 2 | partial agonist | 39 ± 12 | 0.0311 | – | – | – | – | – | – | increased antinociceptive potency vs comparator ([6]; writhing assay, 3a vs 3b, 4a vs 4b, 16b vs 7a (so in the source)): 19 times |
| CO[C@@]12CC[C@@H](N[C@@H](Cc3c[nH]c4ccccc34)C(=O)O)[C@@H]3Oc4c(O)ccc5c4[C@@]31CCN(C)[C@@H]2C5 [Compound 10b, (2S)-2-[(4,5α-Epoxy-3-hydroxy-14β-methoxy-17-methylmorphinan-6β-yl)-amino]-3-(1H-indolo-3yl)propionic Acid Dihydrochloride] | – | 1.64 ± 0.43 | 101 ± 11 | – | – | 2.18 ± 0.72 | 96 ± 5 | 181 ± 49 | full agonists | 87 ± 8 | 0.0927 | reversed; also recorded: antagonized | – | – | – | – | – | – |
| CO[C@@]12CC[C@@H](N[C@H](C(=O)N[C@@H](Cc3ccc(O)cc3)C(=O)O)C(C)C)[C@@H]3Oc4c(O)ccc5c4[C@@]31CCN(C)[C@@H]2C5 [Compound 22b, (2S)-2-[[(4,5α-Epoxy-3-hydroxy-14β-methoxy-17-methylmorphinan-6β-yl)amino]-(2S)-3-methylbutyrylamino]-3-(4-hydroxyphenyl)propionic Acid] | – | 0.16 ± 0.06 | ~70 | – | – | 1.56 ± 0.83 | 89 ± 7 | 1880 ± 594 | – | 63 ± 0.1 | – | – | partial agonists | 0.44 ± 0.01 | 4 to 7 times | 1.38 ± 0.22 | 390 ± 49 | increased MOR potency than 1 ([1]; [35S]GTPγS EC50): 24 times; selectivity for MOR over DOR ([1]; [35S]GTPγS EC50): 10 times; KOR/MOR selectivity ratio ([8]; from Ki, guinea-pig (KOR) and rat (MOR) brain): 886; Ki ([2]; CHO cell membranes expressing human MOR, read-out: Ki MOR): 0.64 ± 0.07 nM; Ki ([3]; CHO cell membranes expressing human DOR, read-out: Ki DOR): 1.39 ± 0.13 nM; lower KOR affinity vs 6α analogue 22a ([10]; guinea-pig brain): about 6 times; functional profile at DOR (full/partial agonist) [4]: full agonists |
| CO[C@@]12CC[C@@H](N[C@@H](CCC(=O)O)C(=O)O)[C@@H]3Oc4c(O)ccc5c4[C@@]31CCN(C)[C@@H]2C5.Cl.Cl [Compound 14b, (2S)-2-[(4,5α-Epoxy-3-hydroxy-14β-methoxy-17-methylmorphinan-6β-yl)amino]pentanedioic Acid Dihydrochloride] | – | 12.7 ± 4.7 | 98 ± 4 | 28.7 ± 7.9 | 18 ± 3.5 | 4.6 ± 1.79 | 101 ± 3 | 2230 ± 238 | – | 76 ± 0.7 | – | – | – | 11.6 ± 0.7 | – | 7.64 ± 0.64 | 1250 ± 70 | increased agonist potency at DOR vs MOR ([4]; [35S]GTPγS EC50): 2–4 times |
| CO[C@@]12CC[C@H](N[C@H](Cc3ccccc3)C(=O)O)[C@@H]3Oc4c(O)ccc5c4[C@@]31CCN(C)[C@@H]2C5 [Compound 17a, (2R)-2-[(4,5α-Epoxy-3-hydroxy-14β-methoxy-17-methyl-morphinan-6α-yl)-amino]-3-phenylpropionic Acid Dihydrochloride] | < 1 | 0.77 ± 0.24 | 96 ± 4 | 0.85 ± 0.01 | 5.26 ± 0.42 | 8.36 ± 0.28 | 95 ± 10 | 215 ± 32 | full agonists | 80 ± 11 | < 0.02 | – | – | 0.61 ± 0.01 | – | 3.69 ± 0.59 | 76.4 ± 9.3 | ED50 (95% CI) ([6]; mice, inhibition of writhing 30 min after drug administration): 18.1 (8.37–39.2) μg/kg |
| CO[C@@]12CC[C@@H](N[C@H](Cc3ccccc3)C(=O)O)[C@@H]3Oc4c(O)ccc5c4[C@@]31CCN(C)[C@@H]2C5 [Compound 17b, (2R)-2-[(4,5α-Epoxy-3-hydroxy-14β-methoxy-17-methyl-morphinan-6β-yl)-amino]-3-phenylpropionic Acid Dihydrochloride] | < 1 | 0.68 ± 0.29 | ~80 | 1.84 ± 0.14 | 2.17 ± 0.26 | 1.71 ± 0.78 | 96 ± 1 | 611 ± 350 | full agonists | 92 ± 10 | 0.25 | – | partial agonist | 1.28 ± 0.38 | ca. 2 times | 1.19 ± 0.13 | 139 ± 23 | – |
| CO[C@@]12CCC(N[C@@H](CCC(=O)O)C(=O)O)[C@@H]3Oc4c(O)ccc5c4[C@@]31CCN(C)[C@@H]2C5 (stereo in doubt) [Compound 14a, (2S)-2-[(4,5α-Epoxy-3-hydroxy-14β-methoxy-17-methylmorphinan-6β-yl)-amino]pentanedioic Acid Dihydrochloride] | – | 3.11 ± 1.32 | 105 ± 3 | 3.29 ± 0.61 | 24 ± 11.8 | 10.8 ± 2.1 | 98 ± 3 | 1170 ± 448 | – | 68 ± 5 | 0.0361 | – | – | 1.45 ± 0.09 | 8 times | 9.03 ± 0.7 | 87.2 ± 4.2 | increased KOR affinity vs 6β analogue 14b ([10]; guinea-pig brain): 14 times |
| CO[C@@]12CC[C@@H](NCC(=O)NCC(=O)O)[C@@H]3Oc4c(O)ccc5c4[C@@]31CCN(C)[C@@H]2C5 [Compound 23a, 2-[2-[(4,5-Epoxy-3-hydroxy-14β-methoxy-17-methylmorphinan-6β-yl)amino]acetylamino]acetic Acid] | – | 4.39 ± 0.54 | 85 ± 9 | – | – | 2.84 ± 1.63 | 102 ± 7 | 885 ± 298 | – | 75 ± 0.7 | 0.104 | antagonized | full agonist | – | – | – | – | lower affinity at MOR vs 2a ([8]; rat brain): about 5 times; functional profile at DOR (full/partial agonist) [4]: full agonist; higher antinociceptive potency than morphine ([6]; writhing assay, mice): 4 times |
| CO[C@@]12CC[C@H](N[C@@H](CCCCN)C(=O)O)[C@@H]3Oc4c(O)ccc5c4[C@@]31CCN(C)[C@@H]2C5 [Compound 8a, (2S)-6-Amino-2-[(4,5α-epoxy-3-hydroxy-14β-methoxy-17-methylmorphinan-6α-yl)amino]hexanoic Acid Trihydrochloride] | – | 2.25 ± 0.07 | 90 ± 8 | – | – | 152 ± 2 | 106 ± 4 | 118 ± 26 | – | 79 ± 13 | 0.0206 | reversed | – | – | – | – | – | – |
